Patent publication US9302999B2, “Substituted triazoles as herbicides” (E. I. DU PONT DE NEMOURS AND COMPANY, priority 2012, dated 2016)

Legend:
Format in all cases: in vivo
[1] = system: soybean (Glycine max); assay: Test F pre-/postemergence: soybean
Text: (§1) Seeds of plant species selected from corn (Zea mays), soybean (Glycine max), velvetleaf (Abutilon theophrasti), lambsquarters (Chenopodium album), poinsettia, wild (wild poinsettia, Euphorbia heterophylla), pigweed, palmer (palmer pigweed, Amaranthus palmeri), waterhemp (common waterhemp, Amaranthus rudis), surinam grass (Brachiaria decumbens), crabgrass, Brazil (Brazilian crabgrass, Digitaria horizontalis), panicum, fall (fall panicum Panicum dichotomiflorum), crabgrass, large (large crabgrass, Digitaria sanguinalis), foxtail, giant (giant foxtail, Setaria faberii), foxtail, green (green foxtail Setaria viridis), goosegrass (Eleusine indica), ragweed (common ragweed, Ambrosia elatior), barnyardgrass (Echinochloa crus-galli), sandbur (southern sandbur, Cenchrus echinatus), arrowleaf sida (Sida rhombifolia), ryegrass, Italian (Italian ryegrass, Lolium multiflorum), dayflower, VA (Virginia (VA) dayflower, Commelina virginica), field bindweed (Convolvulus arvensis), cocklebur (common cocklebur, Xanthium strumarium), morningglory (Ipomoea coccinea), nightshade (eastern black nightshade, Solanum ptycanthum), kochia (Kochia scoparia), nutsedge, yellow (yellow nutsedge, Cyperus esculentus), johnsongrass (Sorghum halepense), smartweed (ladysthumb smartweed, Polygonum persicaria), and beggarticks (hairy beggarticks, Bidens pilosa), were planted into a silt loam soil and treated preemergence with test chemicals formulated in a non-phytotoxic solvent mixture which included a surfactant. At the same time, plants selected from these crop and weed species and also pigweed (Amaranthus retroflexus), waterhemp_RES1 (ALS/Triazine resistant common waterhemp, Amaranthus rudis) and waterhemp_RES2 (ALS/HPPD resistant common waterhemp, Amaranthus rudis) were planted in pots containing a planting medium comprising spaghnum peat moss, vermiculite, wetting agent and starter nutrients treated with postemergence applications of some of the test chemicals formulated in the same manner. Plants ranged in height from 2 to 18 cm for postemergence treatments (1- to 4-leaf stage).
(§2) Treated plants and controls were maintained in a greenhouse for 14 to 21 days, after which time all species were compared to controls and visually evaluated. Plant response ratings, summarized in Table E, are based on a scale of 0 to 100 where 0 is no effect and 100 is complete control. A dash (-) response means no test result.

[2] = system: surinam grass (Brachiaria decumbens); assay: Test F pre-/postemergence: surinam grass; settings: Preemergence
In short: (§3)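 0–100 visual control scores, taken 14–21 d after application in the greenhouse. Preemergence treatment was made to silt loam soil at sowing. Postemergence sprays hit 1- to 4-leaf plants (2–18 cm) in peat/vermiculite mix. Surfactant-containing non-phytotoxic solvent served as the vehicle.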

[3] = system: panicum, fall (fall panicum Panicum dichotomiflorum); assay: Test F pre-/postemergence: panicum, fall
Text: as §1, §2

[4] = system: ryegrass, Italian (Italian ryegrass, Lolium multiflorum); assay: Test F pre-/postemergence: ryegrass, Italian
Text: as §1, §2

[5] = system: nightshade (eastern black nightshade, Solanum ptycanthum); assay: Test F pre-/postemergence: nightshade; settings: Preemergence
Text: as §1, §2

[6] = system: johnsongrass (Sorghum halepense); assay: Test F pre-/postemergence: johnsongrass; settings: Preemergence
In short: as §3

[7] = Preemergence, 16 g ai/ha, scale 0 to 100, 0 no effect, 100 complete control
[8] = Preemergence, 31 g ai/ha, scale 0 to 100, 0 no effect, 100 complete control
[9] = Preemergence, 125 g ai/ha, scale 0 to 100
[10] = Preemergence, 250 g ai/ha, scale 0 to 100
[11] = 16 g ai/ha, scale 0 to 100, 0 no effect, 100 complete control
[12] = 31 g ai/ha, scale 0 to 100, 0 no effect, 100 complete control
[13] = Postemergence, 250 g ai/ha, scale 0 to 100
[14] = Postemergence, 31 g ai/ha, scale 0 to 100
[15] = Postemergence, 125 g ai/ha, scale 0 to 100
[16] = Postemergence, 16 g ai/ha, scale 0 to 100
[17] = Postemergence, 62 g ai/ha, scale 0 to 100

Row | Compound | Plant response rating, Soybean [1, 7] | Plant response rating, Soybean [1, 8] | Plant response rating, Soybean [1, 9] | Plant response rating, Soybean [1, 10] | Plant response rating, Surinam Grass [2, 11] | Plant response rating, Surinam Grass [2, 12] | Plant response rating, Surinam Grass ([2]; 125 g ai/ha, scale 0 to 100) | Plant response rating, Surinam Grass ([2]; 250 g ai/ha, scale 0 to 100) | Plant response rating, Panicum, Fall [3, 8] | Plant response rating, Panicum, Fall [3, 9] | Plant response rating, Panicum, Fall [3, 10] | Plant response rating, Ryegrass, Italian [4, 8] | Plant response rating, Ryegrass, Italian [4, 9] | Plant response rating, Ryegrass, Italian [4, 10] | Plant response rating, Nightshade [5, 12] | Plant response rating, Nightshade ([5]; 125 g ai/ha, scale 0 to 100) | Plant response rating, Nightshade ([5]; 250 g ai/ha, scale 0 to 100) | Plant response rating, Johnsongrass [6, 12] | Plant response rating, Johnsongrass ([6]; 125 g ai/ha, scale 0 to 100) | Plant response rating, Johnsongrass ([6]; 250 g ai/ha, scale 0 to 100) | also measured
1 | CCc1nn(-c2ccc(F)c(F)c2)nc1Oc1ccnc(C(F)(F)F)c1 [Compound 171] | 0 | 0 | 0 | 20 | 0 | 0 | 10 | 30 | 65 | 100 | 100 | 0 | 25 | 50 | 0 | 5 | 5 | 0 | 65 | 75 | Plant response rating, Panicum, Fall [3, 7]: 0; Plant response rating, Ryegrass, Italian [4, 7]: 0; Plant response rating, Nightshade [5, 11]: 0; Plant response rating, Johnsongrass [6, 11]: 0; Plant response rating, Johnsongrass ([6]; 62 g ai/ha, scale 0 to 100): 10
2 | CCCc1nn(-c2ccc(F)c(F)c2)nc1Oc1ccnc(C(F)(F)F)c1 [Compound 172] |  | 0 | 20 | 20 |  | 20 | 35 | 98 | 75 | 100 | 100 | 35 | 100 | 100 | 5 | 100 | 100 | 50 | 75 | 100 | Plant response rating, Soybean [1, 13]: 90; Plant response rating, Soybean [1, 14]: 50; Plant response rating, Soybean [1, 15]: 75; Plant response rating, Panicum, Fall [3, 13]: 50; Plant response rating, Panicum, Fall [3, 14]: 20; Plant response rating, Panicum, Fall [3, 15]: 50; Plant response rating, Ryegrass, Italian [4, 13]: 50; Plant response rating, Ryegrass, Italian [4, 14]: 20; Plant response rating, Ryegrass, Italian [4, 15]: 40
3 | CCc1nn(-c2ccc(F)cc2)nc1Cc1ccnc(C(F)(F)F)c1 [Compound 154] | 0 | 0 | 25 | 25 | 0 | 10 | 70 | 90 | 90 | 100 | 100 | 0 | 70 | 100 | 10 | 90 | 100 | 20 | 50 | 98 | Plant response rating, Panicum, Fall [3, 7]: 15; Plant response rating, Ryegrass, Italian [4, 7]: 0; Plant response rating, Nightshade [5, 11]: 0; Plant response rating, Johnsongrass [6, 11]: 0; Plant response rating, Johnsongrass ([6]; 62 g ai/ha, scale 0 to 100): 25
4 | CCc1nn(-c2ccc(C(F)(F)F)cc2)nc1Oc1ccnc(C(F)(F)F)c1 [Compound 169] | 0 | 0 |  | 20 | 0 | 65 | 75 | 100 | 100 | 100 | 100 | 0 | 100 | 100 | 80 | 100 | 100 | 0 | 50 | 80 | Plant response rating, Soybean [1, 13]: 50; Plant response rating, Soybean [1, 16]: 20; Plant response rating, Soybean [1, 14]: 20; Plant response rating, Soybean [1, 17]: 30; Plant response rating, Soybean [1, 15]: 40; Plant response rating, Panicum, Fall [3, 13]: 30; Plant response rating, Panicum, Fall [3, 16]: 10; Plant response rating, Panicum, Fall [3, 14]: 15; Plant response rating, Panicum, Fall [3, 17]: 20; Plant response rating, Panicum, Fall [3, 15]: 25; Plant response rating, Panicum, Fall [3, 7]: 65; Plant response rating, Ryegrass, Italian [4, 13]: 30; Plant response rating, Ryegrass, Italian [4, 16]: 0; Plant response rating, Ryegrass, Italian [4, 14]: 0; Plant response rating, Ryegrass, Italian [4, 17]: 20; Plant response rating, Ryegrass, Italian [4, 15]: 20; Plant response rating, Ryegrass, Italian [4, 7]: 0; Plant response rating, Nightshade [5, 11]: 0; Plant response rating, Johnsongrass [6, 11]: 0; Plant response rating, Johnsongrass ([6]; 62 g ai/ha, scale 0 to 100): 20
